Results published in ChEMBL document CHEMBL4406791, “Allosteric Modalities for Membrane-Bound Receptors: Insights from Drug Hunting for Brain Diseases” (J Med Chem, 2019).

Molecular target: Metabotropic glutamate receptor 5 (Homo sapiens) (UniProt P41594)
Test: Binding affinity to mGluR5 (unknown origin) assessed as association rate constant

Sequence of Metabotropic glutamate receptor 5 (Homo sapiens) (P41594 21-1212 limits assumed): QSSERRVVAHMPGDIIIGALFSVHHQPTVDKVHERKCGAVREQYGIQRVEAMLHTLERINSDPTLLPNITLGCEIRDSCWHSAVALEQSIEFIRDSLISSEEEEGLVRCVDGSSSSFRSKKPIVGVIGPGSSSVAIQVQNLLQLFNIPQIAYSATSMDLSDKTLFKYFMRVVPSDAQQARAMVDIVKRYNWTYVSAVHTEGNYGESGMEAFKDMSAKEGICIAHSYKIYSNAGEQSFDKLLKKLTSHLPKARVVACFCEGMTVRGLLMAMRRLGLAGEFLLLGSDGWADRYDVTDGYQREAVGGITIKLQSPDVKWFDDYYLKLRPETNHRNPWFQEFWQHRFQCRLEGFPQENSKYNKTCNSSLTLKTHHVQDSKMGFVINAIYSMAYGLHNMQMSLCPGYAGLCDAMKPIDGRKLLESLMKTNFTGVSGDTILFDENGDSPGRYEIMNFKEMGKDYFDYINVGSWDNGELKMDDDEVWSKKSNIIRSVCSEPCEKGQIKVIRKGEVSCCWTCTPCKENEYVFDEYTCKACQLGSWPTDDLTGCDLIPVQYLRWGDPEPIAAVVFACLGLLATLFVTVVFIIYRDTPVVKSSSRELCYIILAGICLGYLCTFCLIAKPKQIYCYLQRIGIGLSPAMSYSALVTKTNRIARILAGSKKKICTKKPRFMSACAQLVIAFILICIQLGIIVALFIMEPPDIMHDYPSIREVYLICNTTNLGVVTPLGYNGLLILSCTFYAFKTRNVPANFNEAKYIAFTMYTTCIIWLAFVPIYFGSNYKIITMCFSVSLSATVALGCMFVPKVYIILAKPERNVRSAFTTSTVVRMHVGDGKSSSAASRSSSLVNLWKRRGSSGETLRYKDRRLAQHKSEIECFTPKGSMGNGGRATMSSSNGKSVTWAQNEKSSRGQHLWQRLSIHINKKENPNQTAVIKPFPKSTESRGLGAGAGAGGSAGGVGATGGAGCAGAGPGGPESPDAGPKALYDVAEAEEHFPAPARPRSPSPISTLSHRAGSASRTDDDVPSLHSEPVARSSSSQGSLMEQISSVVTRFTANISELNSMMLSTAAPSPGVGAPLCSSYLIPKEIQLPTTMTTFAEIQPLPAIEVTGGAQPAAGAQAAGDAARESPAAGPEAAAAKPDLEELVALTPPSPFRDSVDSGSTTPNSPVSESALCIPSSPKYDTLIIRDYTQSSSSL

Molecule O=C(Nc1ccc(-c2ccn3c(CC4CC4)nnc3c2C(F)(F)F)cc1)c1ccc(S(=O)(=O)F)cc1 has a K of 3.2 ×10³ /M/s.
